As usually defined, the Ki is the dissociation constant of the complex between target and ligand, obtained from inhibition or displacement. Low values mean a stronger hold on the target, high ones a looser hold on the target.

For assay [1], the target named is 5-hydroxytryptamine receptor 2A (Rattus norvegicus, UniProt P14842).
In assay [2] the target is D(2) dopamine receptor (Rattus norvegicus, UniProt P61169).
Assay [3] has as its target 5-hydroxytryptamine receptor 1B (Rattus norvegicus, UniProt P28564).
In assay [4] the target is T1, Alpha-1A adrenergic receptor (Rattus norvegicus, UniProt P43140).
T1 sequence (P43140 whole entry): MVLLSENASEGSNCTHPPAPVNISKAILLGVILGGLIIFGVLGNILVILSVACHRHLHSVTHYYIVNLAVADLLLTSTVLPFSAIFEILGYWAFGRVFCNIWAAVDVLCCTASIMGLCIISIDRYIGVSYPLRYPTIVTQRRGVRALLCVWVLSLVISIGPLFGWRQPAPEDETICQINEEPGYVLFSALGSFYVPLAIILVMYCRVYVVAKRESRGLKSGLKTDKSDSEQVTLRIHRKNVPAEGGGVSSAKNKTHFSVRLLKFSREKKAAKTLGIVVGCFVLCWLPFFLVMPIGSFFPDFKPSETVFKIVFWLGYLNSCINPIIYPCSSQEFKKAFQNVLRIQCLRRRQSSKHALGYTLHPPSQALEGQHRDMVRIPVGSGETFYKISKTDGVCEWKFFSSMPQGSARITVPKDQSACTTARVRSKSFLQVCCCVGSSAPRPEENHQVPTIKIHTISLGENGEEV

The target in assay [5] is T2, 5-hydroxytryptamine receptor 2C (Rattus norvegicus, UniProt P08909).
T2 sequence (P08909 whole entry): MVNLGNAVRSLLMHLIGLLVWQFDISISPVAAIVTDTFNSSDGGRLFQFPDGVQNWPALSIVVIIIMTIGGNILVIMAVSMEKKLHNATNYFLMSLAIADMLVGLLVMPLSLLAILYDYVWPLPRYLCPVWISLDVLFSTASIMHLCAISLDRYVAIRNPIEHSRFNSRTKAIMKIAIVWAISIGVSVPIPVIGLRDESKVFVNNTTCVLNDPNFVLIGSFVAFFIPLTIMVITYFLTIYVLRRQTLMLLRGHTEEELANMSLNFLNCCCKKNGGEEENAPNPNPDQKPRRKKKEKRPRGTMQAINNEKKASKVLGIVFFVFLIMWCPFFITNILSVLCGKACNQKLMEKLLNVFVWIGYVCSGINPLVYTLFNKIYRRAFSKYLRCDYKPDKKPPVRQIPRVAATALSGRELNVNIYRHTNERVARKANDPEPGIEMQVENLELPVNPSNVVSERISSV

Assay [6] addresses Gamma-aminobutyric acid receptor subunit alpha-1 (Rattus norvegicus, UniProt P62813).
Assay [7] concerns the target 5-hydroxytryptamine receptor 1D (Rattus norvegicus, UniProt P28565).
For assay [8], the target named is T3, 5-hydroxytryptamine receptor 3A (Rattus norvegicus, UniProt P35563).
T3 sequence (P35563 whole entry): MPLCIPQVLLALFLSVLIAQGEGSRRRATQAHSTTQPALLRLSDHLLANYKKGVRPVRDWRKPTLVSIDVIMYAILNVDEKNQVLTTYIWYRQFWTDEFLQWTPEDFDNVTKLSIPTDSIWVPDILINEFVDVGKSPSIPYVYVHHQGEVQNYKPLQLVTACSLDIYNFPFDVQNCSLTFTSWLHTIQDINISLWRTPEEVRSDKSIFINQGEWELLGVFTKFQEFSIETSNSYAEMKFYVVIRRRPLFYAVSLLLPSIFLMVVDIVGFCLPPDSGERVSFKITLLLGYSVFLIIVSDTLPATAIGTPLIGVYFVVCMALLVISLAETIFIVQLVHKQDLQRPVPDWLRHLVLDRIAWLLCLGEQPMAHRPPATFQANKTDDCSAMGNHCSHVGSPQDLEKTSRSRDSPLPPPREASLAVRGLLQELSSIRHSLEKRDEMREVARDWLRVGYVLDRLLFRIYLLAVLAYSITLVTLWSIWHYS

Assay [9] addresses T4, Alpha-2C adrenergic receptor (Rattus norvegicus, UniProt P22086).
T4 sequence (P22086 whole entry): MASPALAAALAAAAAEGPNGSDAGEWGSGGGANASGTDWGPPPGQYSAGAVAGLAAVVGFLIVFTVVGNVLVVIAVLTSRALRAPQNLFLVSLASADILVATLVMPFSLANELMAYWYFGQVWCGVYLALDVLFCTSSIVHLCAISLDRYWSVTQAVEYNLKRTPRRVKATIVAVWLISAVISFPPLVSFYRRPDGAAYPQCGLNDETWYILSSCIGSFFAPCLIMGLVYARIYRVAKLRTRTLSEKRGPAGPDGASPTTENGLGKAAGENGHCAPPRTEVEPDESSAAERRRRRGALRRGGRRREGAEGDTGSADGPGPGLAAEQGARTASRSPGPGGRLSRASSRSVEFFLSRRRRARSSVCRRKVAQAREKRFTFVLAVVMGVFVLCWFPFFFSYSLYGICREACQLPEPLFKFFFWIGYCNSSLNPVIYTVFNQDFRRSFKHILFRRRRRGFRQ

Assay [10] concerns the target T5, Muscarinic acetylcholine receptor M2 (Rattus norvegicus, UniProt P10980).
T5 sequence (P10980 whole entry): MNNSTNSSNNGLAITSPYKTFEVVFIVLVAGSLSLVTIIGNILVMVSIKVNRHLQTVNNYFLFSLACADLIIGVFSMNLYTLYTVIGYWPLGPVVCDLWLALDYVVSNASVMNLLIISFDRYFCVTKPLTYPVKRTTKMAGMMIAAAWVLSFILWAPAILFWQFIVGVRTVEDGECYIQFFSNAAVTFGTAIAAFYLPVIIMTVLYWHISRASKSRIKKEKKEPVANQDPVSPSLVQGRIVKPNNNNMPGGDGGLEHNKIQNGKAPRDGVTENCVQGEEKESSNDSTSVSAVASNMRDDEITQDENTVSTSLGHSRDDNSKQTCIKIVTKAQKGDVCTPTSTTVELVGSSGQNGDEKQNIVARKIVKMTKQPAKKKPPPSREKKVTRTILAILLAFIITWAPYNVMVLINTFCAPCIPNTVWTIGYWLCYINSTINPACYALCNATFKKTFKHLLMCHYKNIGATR

The target of assay [11] is D(1A) dopamine receptor (Rattus norvegicus, UniProt P18901).
Sequence of D(1A) dopamine receptor (P18901 whole entry): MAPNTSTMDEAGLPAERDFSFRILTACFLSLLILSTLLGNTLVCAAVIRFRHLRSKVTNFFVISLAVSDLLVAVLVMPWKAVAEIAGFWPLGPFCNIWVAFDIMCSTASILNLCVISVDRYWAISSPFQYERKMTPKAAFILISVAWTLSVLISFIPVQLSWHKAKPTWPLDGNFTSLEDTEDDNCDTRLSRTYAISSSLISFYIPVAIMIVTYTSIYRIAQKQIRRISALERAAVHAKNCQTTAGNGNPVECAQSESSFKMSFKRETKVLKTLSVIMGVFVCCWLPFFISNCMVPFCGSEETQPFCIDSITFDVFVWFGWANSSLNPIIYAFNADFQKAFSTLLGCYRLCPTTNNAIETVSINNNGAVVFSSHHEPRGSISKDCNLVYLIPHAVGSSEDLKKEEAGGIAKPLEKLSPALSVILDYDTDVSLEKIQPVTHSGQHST
For assay [12], the target named is Histamine H1 receptor (Rattus norvegicus, UniProt P31390).
Sequence of Histamine H1 receptor (P31390 whole entry): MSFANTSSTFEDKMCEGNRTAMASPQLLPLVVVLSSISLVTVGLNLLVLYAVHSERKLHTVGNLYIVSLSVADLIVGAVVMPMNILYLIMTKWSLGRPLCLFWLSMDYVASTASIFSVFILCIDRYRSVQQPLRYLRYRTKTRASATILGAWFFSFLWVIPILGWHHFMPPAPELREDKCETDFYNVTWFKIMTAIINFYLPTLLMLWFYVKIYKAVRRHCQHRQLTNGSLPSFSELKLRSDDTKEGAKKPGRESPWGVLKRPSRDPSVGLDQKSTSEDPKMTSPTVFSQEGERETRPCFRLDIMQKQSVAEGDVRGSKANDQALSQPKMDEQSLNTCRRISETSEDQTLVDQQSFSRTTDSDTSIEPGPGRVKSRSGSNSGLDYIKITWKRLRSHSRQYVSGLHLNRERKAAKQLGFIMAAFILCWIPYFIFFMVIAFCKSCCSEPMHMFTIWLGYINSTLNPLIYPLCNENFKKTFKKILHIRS
The target in assay [13] is Beta-2 adrenergic receptor (Rattus norvegicus, UniProt P10608).
Sequence of Beta-2 adrenergic receptor (P10608 whole entry): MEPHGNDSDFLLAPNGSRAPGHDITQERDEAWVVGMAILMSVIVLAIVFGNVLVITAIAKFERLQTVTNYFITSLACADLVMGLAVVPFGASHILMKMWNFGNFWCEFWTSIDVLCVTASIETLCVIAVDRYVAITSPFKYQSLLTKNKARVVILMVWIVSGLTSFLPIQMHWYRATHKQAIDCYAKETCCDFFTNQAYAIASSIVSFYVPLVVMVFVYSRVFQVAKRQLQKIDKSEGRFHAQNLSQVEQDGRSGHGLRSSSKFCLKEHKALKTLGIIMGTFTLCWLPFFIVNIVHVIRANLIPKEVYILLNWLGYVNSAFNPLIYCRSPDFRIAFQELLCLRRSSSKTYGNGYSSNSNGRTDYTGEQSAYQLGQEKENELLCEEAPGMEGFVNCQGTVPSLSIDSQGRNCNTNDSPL

Sequence of Gamma-aminobutyric acid receptor subunit alpha-1 (P62813 whole entry): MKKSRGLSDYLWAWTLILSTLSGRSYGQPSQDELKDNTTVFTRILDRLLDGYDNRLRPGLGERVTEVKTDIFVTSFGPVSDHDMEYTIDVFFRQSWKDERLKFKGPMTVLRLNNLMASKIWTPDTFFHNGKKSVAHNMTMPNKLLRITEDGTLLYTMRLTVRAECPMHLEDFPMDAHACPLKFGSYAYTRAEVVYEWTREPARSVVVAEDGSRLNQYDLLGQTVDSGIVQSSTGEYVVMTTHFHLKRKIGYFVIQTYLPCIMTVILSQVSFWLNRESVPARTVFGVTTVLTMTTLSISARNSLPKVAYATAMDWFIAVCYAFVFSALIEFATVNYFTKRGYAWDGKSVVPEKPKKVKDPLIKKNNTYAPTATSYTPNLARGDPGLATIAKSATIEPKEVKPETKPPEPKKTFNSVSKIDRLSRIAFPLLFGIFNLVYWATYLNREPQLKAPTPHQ
Sequence of D(2) dopamine receptor (P61169 whole entry): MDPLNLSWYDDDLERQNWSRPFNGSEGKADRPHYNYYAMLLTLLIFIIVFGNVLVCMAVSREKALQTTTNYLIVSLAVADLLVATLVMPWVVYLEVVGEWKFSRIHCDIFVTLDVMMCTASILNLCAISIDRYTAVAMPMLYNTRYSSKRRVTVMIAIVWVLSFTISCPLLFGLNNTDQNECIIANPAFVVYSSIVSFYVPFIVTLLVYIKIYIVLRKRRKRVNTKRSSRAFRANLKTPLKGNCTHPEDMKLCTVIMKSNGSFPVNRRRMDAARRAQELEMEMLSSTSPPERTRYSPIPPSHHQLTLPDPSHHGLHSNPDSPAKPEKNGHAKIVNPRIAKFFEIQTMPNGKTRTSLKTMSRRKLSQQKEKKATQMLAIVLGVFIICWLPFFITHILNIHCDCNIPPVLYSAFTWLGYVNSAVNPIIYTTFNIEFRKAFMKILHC
Sequence of 5-hydroxytryptamine receptor 1B (P28564 whole entry): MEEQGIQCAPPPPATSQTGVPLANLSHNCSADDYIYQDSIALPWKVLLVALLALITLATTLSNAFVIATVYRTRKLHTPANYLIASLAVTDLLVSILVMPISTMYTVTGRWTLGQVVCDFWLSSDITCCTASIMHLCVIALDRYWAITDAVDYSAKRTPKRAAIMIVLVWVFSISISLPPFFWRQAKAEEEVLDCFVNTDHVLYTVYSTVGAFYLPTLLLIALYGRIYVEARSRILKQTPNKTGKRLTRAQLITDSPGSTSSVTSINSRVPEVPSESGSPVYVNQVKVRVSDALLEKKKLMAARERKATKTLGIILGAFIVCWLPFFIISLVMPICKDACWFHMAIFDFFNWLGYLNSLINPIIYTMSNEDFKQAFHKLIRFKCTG
Sequence of 5-hydroxytryptamine receptor 2A (P14842 whole entry): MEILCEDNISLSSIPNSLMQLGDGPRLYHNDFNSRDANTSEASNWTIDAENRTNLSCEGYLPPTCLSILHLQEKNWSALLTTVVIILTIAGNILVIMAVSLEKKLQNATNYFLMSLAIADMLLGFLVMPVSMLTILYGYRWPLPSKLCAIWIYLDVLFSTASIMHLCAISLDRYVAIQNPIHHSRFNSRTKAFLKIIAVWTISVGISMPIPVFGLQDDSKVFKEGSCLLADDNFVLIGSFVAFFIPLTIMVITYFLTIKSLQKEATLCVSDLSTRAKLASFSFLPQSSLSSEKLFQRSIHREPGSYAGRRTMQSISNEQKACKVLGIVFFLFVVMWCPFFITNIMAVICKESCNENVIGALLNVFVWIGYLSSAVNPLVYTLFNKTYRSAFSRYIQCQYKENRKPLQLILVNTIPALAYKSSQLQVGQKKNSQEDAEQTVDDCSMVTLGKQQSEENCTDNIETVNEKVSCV
Sequence of 5-hydroxytryptamine receptor 1D (P28565 whole entry): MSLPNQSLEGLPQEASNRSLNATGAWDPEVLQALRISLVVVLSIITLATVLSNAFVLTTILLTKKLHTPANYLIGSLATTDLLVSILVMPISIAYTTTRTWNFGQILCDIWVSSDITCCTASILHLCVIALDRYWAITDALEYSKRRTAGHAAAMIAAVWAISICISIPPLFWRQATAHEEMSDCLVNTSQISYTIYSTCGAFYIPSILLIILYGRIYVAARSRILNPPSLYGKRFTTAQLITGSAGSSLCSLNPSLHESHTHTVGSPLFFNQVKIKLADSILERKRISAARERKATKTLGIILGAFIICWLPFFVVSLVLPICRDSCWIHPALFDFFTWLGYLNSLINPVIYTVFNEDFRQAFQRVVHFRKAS

In the case of `CCCN(CCC)C1Cc2c[nH]c3ccc(C(C)=O)c(c23)C1` (stereo not drawn) [LY-293384], the Ki in assay [1], in assay [2], in assay [3], in [4], in [5] and in assay [6] was 1000 nM in each case. Besides, the inhibitory constant (Ki) in [7] is 66.9 nM; in assay [8], 1000 nM; in assay [9], 1000 nM; in assay [10], 1000 nM; in assay [11], 1000 nM; in [12] it was 1000 nM. Also, the Ki in assay [13] was 1000 nM.
